Experimental data as given in patent publication US10112968B2, “Inhibitors of protein methyltransferase DOT1L and methods of use thereof” (Epizyme, Inc., priority 2012, dated 2018).
Entries after “also recorded” stand apart in the source; their conditions may differ. Blank lines part the entries; values can stand above or below the compound they belong to.

Legend:
MV4-11 xenograft tumors = test: MV4-11 nude rat subcutaneous xenograft model of MLL-rearranged leukemia; type: in vivo
Method: Four groups of 10 (Groups 1, 2, 3, and 4 female RH nu/nu rats (7 weeks old, weighing 120-160 g) bearing MV4-11 xenograft tumors of sizes ranging from 300-600 mm^3 were implanted with a catheter in the femoral vein). The infusion flow rate was set at 1,500 μL/hour/kg and was adjusted to the most recent mean body weight of each treatment group (as an example, the infusion flow rate was 300 μL/hour for a group of rats having a mean body weight of 200 g). Group 1 received vehicle via a 21-day continuous IV infusion. Group 2 received 21-day continuous IV infusion of the test substance at 35 mg/kg/day. Group 3 received a daily 8-hour continuous IV infusion of the test substance at 67 mg/kg/day for 21 consecutive days. Between two IV infusions of the test substance, the rats were kept under IV infusion with NaCl 0.9% solution. Group 4 received a 21-day continuous IV infusion of the test substance at 70 mg/kg/day. Syringes used for the IV infusion were replaced every day.
The rats were terminated when the subcutaneous tumor reached a maximum volume of 9,000 mm^3 or at a maximum of 55 days after tumor cells injection.

[1] = Pharmacokinetic half-life in systemic circulation, rats; type: in vivo
[2] = Pharmacokinetic half-life in systemic circulation, dogs; type: in vivo
H3K79 methylation = H3K79 methylation in treated leukemia cells; type: cell-based; conditions: treatment of leukemia cells
[3] = system: MLL-rearranged leukemia cells; test: Cell killing in MLL-rearranged leukemia cells; type: cell-based
[4] = system: leukemia cell lines without the chromosomal rearrangement of the MLL gene; test: Antiproliferative effect on leukemia cell lines without MLL rearrangement; type: cell-based
[5] = system: other histone methyl marks; test: Effect on other histone methyl marks in cells; type: cell-based
DOT1L [6] = target: T1, DOT1L (Homo sapiens (Human), UniProt Q8TEK3); test: DOT1L enzymatic activity radiometric assay (methyl transfer from SAM to chicken erythrocyte nucleosomes); conditions: for IC50: read-out: DOT1L IC50; for alpha: global fit
T1 sequence (Q8TEK3 whole entry): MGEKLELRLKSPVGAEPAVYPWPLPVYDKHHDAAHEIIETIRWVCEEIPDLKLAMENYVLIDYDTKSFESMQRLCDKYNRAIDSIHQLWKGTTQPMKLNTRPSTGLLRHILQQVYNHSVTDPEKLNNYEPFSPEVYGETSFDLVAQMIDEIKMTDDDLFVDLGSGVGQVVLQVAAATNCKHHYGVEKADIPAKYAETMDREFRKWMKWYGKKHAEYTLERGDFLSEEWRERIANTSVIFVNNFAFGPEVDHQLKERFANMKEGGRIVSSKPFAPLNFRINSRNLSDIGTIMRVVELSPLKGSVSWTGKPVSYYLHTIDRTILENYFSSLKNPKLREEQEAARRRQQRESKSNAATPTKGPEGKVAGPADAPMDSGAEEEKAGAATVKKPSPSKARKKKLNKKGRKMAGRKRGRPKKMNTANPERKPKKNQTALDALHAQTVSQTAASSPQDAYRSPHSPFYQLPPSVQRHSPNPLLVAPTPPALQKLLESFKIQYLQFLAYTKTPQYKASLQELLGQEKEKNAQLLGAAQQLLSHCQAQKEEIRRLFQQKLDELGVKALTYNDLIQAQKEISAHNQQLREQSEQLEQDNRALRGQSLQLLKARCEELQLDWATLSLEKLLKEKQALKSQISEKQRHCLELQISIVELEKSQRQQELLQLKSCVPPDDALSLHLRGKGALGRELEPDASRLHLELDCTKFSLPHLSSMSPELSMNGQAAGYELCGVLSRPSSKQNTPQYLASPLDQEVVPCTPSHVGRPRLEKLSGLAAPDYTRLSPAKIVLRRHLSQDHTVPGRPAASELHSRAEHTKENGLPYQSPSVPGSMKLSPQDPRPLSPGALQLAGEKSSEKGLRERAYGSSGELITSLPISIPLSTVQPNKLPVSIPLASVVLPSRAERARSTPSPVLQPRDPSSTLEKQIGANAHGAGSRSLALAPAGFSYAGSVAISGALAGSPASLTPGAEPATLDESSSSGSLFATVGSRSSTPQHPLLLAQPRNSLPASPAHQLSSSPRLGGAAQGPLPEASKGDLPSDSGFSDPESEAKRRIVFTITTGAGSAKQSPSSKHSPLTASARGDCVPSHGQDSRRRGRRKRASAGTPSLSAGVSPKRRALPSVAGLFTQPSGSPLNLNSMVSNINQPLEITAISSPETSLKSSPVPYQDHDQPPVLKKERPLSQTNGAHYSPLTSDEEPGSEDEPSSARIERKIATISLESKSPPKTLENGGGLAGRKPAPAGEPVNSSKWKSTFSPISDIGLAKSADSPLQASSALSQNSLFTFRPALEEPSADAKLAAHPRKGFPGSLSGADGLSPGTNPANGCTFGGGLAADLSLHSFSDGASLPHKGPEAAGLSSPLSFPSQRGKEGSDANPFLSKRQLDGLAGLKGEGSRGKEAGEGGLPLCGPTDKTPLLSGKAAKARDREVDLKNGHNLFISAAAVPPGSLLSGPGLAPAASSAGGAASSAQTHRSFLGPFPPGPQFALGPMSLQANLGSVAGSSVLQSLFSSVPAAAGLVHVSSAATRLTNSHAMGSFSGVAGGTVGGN

DOT1L [7] = target: T1, DOT1L; test: Ligand association and dissociation rate constants by surface plasmon resonance (SPR); type: binding; conditions: Kd calculated as koff/kon
MV4-11 cells = test: Cell proliferation assay (Guava Viacount, 14 days); type: cell-based; conditions: Homo sapiens, 336 h, day 14, read-out: Cellular IC50 Proliferation
H3K79me2 in MV4-11 cells = test: H3K79me2 quantitative ELISA; conditions: Homo sapiens, MV4-11, 96 h, read-out: Cellular IC50 H3K79 Methylation
[8] = system: HOXA9 mRNA in MV4-11 cells; test: Quantitative real-time PCR analysis of HOXA9 message; conditions: Homo sapiens, MV4-11, 144 h, read-out: Cellular IC50 HOXA9 mRNA
MLL-rearranged leukemia = test: Aggressive, disseminated mouse model of MLL-rearranged leukemia; type: in vivo; conditions: as previously described

Structure (SMILES): CC(C)N(C[C@H]1O[C@@H](n2cnc3c(N)ncnc32)[C@H](O)[C@@H]1O)[C@H]1C[C@@H](CCc2nc3cc(C(C)(C)C)ccc3[nH]2)C1 [Compound A2, (2R,3R,4S,5R)-2-(6-amino-9H-purin-9-yl)-5-((((1r,3S)-3-(2-(5-(tert-butyl)-1H-benzo[d]imidazol-2-yl)ethyl)cyclobutyl)(isopropyl)amino)methyl)tetrahydrofuran-3,4-diol]
anti-tumor activity (MV4-11 xenograft tumors; continuous intravenous infusion for 21 days, FIG. 1): dose-dependent anti-tumor activity; also recorded: complete and sustained tumor regression
time with no regrowth after the cessation of treatment (MV4-11 xenograft tumors; highest dose (70 mg/kg/day)): up to 32 days
tumor regressions (MV4-11 xenograft tumors; highest dose (70 mg/kg/day), 21-day continuous IV infusion): complete tumor regressions
weight loss or toxicity during efficacy study (MV4-11 xenograft tumors; rats): No significant weight loss or obvious toxicity
effective pharmacokinetic half-life in systemic circulation [1]: 15 min
effective pharmacokinetic half-life in systemic circulation [2]: 90 min
H3K79 methylation (H3K79 methylation): concentration- and time-dependent diminution
cell killing [3]: selective, apoptotic cell killing
impact on non-rearranged cells [4]: minimal impact
effect on other histone methyl marks / methylation status of other histone sites [5]: without effect

Structure (SMILES): CC(C)N(C[C@H]1O[C@@H](n2cnc3c(N)ncnc32)[C@H](O)[C@@H]1O)[C@H]1C[C@@H](CCc2nc3cc(Cl)c(C(F)(F)F)cc3[nH]2)C1 [Compound A5, (2R,3R,4S,5R)-2-(6-amino-9H-purin-9-yl)-5-((((1r,3S)-3-(2-(5-chloro-6-(trifluoromethyl)-1H-benzo[d]imidazol-2-yl)ethyl)cyclobutyl)(isopropyl)amino)methyl)tetrahydrofuran-3,4-diol]
IC50 (DOT1L [6]): 0.59 nM

Structure (SMILES): CC(C)N(C[C@H]1O[C@@H](n2ccc3c(N)ncnc32)[C@H](O)[C@@H]1O)[C@H]1C[C@H](CCc2nc3cc(C(C)(C)C)ccc3[nH]2)C1 [Compound A75, (2R,3R,4S,5R)-2-(4-amino-7H-pyrrolo[2,3-d]pyrimidin-7-yl)-5-((((1s,3R)-3-(2-(5-(tert-butyl)-1H-benzo[d]imidazol-2-yl)ethyl)cyclobutyl)(isopropyl)amino)methyl)tetrahydrofuran-3,4-diol]
IC50 (DOT1L [6]): 0.59 nM

Structure (SMILES): CN(C[C@H]1O[C@@H](n2ccc3c(N)ncnc32)[C@H](O)[C@@H]1O)[C@H]1C[C@@H](CCc2nc3cc(C(C)(C)C)ccc3[nH]2)C1 [Compound A86, (2R,3R,4S,5R)-2-(4-amino-7H-pyrrolo[2,3-d]pyrimidin-7-yl)-5-((((1r,3S)-3-(2-(5-(tert-butyl)-1H-benzo[d]imidazol-2-yl)ethyl)cyclobutyl)(methyl)amino)methyl)tetrahydrofuran-3,4-diol]
IC50 (DOT1L [6]): 0.62 nM

Structure (SMILES): CC(C)N(C[C@H]1O[C@@H](n2ccc3c(N)ncnc32)[C@H](O)[C@@H]1O)[C@H]1C[C@@H](CCc2nc3cc(OC(F)(F)F)ccc3[nH]2)C1 [Compound A87, (2R,3R,4S,5R)-2-(4-amino-7H-pyrrolo[2,3-d]pyrimidin-7-yl)-5-((isopropyl((1r,3S)-3-(2-(5-(trifluoromethoxy)-1H-benzo[d]imidazol-2-yl)ethyl)cyclobutyl)amino)methyl)tetrahydrofuran-3,4-diol]
IC50 (DOT1L [6]): 0.8 nM

Ki (DOT1L [6]): 20000 nM
Structure (SMILES): CN(CCNC(=O)OCC1c2ccccc2-c2ccccc21)C[C@H]1OC(n2cnc3c(N)ncnc32)[C@H](O)[C@@H]1O (some centres unmarked) [Compound C64]

Kd (DOT1L [7]): 167 ± 100 nM
IC50 (MV4-11 cells): > 50000 nM
IC50 (H3K79me2 in MV4-11 cells): 28000 ± 25000 nM
IC50 [8]: > 50000 nM
Ki (DOT1L [6]): 845 nM
Structure (SMILES): CN(CCNC(=O)Nc1ccc(C(C)(C)C)cc1)C[C@H]1O[C@@H](n2cnc3c(N)ncnc32)[C@H](O)[C@@H]1O [Compound C94]

Structure (SMILES): CC(C)N(CCCNC(=O)Nc1ccc(C(C)(C)C)cc1)C[C@H]1OC(n2ccc3c(N)ncnc32)C(O)[C@@H]1O (some centres unmarked) [Compound D16]
IC50 (MV4-11 cells): 146 ± 72 nM
survival (MLL-rearranged leukemia): statistically significant survival advantage
IC50 (H3K79me2 in MV4-11 cells): 5 ± 3 nM
IC50 [8]: 830 ± 170 nM
inhibition modality with respect to SAM (DOT1L [6]): competitive inhibitor
inhibition modality with respect to nucleosome (DOT1L [6]): noncompetitive inhibitor
alpha (DOT1L [6]; FIG. 2A, varied SAM concentration): 10±6
alpha (DOT1L [6]; FIG. 2B, varied oligonucleosome concentration): 0.5±0.2
ΔΔGbinding (DOT1L [6]; between C118 and D16, at 25° C.): 2.4 to 2.9 kcal/mol
